The test concerns the target T1, cystine/glutamate transporter (Homo sapiens, UniProt Q9UPY5).
T1 construct: endogenous in cells; host or cells: SKOV3 cells treated with 100 uM DEM (the paragraph also says 'DEM treated EL4 cells')
T1 sequence (Q9UPY5 1-501): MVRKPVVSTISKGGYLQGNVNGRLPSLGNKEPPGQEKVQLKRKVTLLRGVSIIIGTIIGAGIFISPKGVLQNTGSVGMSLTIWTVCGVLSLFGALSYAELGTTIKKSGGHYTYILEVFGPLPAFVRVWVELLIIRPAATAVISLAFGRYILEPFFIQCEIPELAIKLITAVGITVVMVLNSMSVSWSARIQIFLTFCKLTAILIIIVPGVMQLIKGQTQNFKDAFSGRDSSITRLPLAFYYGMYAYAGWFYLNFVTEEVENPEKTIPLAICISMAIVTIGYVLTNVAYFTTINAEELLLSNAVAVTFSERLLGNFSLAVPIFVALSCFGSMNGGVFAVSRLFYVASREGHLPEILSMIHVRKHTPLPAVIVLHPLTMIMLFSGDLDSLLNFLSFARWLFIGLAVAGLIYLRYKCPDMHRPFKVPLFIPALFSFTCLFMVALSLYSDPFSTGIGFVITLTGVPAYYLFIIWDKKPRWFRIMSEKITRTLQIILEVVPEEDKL
T1 sequence (P08195 2-529 partner): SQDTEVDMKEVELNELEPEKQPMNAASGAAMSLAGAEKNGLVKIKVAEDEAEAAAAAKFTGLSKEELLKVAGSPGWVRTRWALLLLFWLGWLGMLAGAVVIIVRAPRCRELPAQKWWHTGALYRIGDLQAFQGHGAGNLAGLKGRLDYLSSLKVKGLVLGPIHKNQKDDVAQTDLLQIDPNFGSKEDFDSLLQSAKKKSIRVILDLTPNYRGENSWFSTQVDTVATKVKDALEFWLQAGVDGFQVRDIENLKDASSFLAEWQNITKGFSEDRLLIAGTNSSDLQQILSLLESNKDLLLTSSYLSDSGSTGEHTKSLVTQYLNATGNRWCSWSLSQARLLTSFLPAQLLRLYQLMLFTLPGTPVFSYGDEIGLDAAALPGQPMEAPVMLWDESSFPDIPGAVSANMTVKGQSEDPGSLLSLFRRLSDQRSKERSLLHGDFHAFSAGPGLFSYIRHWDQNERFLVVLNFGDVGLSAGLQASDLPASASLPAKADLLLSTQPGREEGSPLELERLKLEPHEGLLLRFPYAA
The test can be described thus: Inhibition of 3H-L-Glu uptake in DEM treated cells. The test is classed as cell-based. The note with it: SK-OV-3, 0.5 h; 1 mM agent; SKOV3 cells treated with 100 μM DEM overnight; 30 minutes uptake at room temperature; triplicate; lower = inhibition of transporter; read-out: % of control 3H-Glu uptake. As to the method:
Also provided are measurements of inhibition response of ^3H-L-GLU (control) uptake in DEM treated EL4 cells. As such 96 well plate were seeded with 100,000 SKOV3 cells/well in complete growth media (McCoy's+10% Fetal Bovine Serum(FBS)) and incubated overnight at 37° C. The media was changed to 100 μM DEM and again incubated overnight at 37° C. Wash 1× with Hank's Balanced Salt Solution (HBSS) Room Temperature and assayed […] of each agent (Table 2) in triplicate by incubating for 30 minutes (uptake) at room temperature. It was then washed twice with HBSS and 200 μl MicroScint20 added for counting. The protocol used 200 μCi ^3H-Glu per well. The mix and agent and ^3H-Glu provided a final concentration of 200 μCi and 1 mM agent. […] As such lower response is indicative of inhibition of the transporter. As such numbers below approximately 30% is equivalent to 70% inhibition and are considered good candidates for pharmaceutical agents.

Consider `CC(=O)N(CCC[C@H](N)C(=O)O)CCC(=O)O` [Structure a], for which the remaining activity at 1000 µM was 118%.
On to `CC(=O)N(CCC[C@H](N)C(=O)O)CC(=O)O` [Structure b], for which the remaining activity at 1000 µM came out at 95.7%.
On to `CC(=O)N(CCCC[C@H](N)C(=O)O)CCC(=O)O` [Structure c], for which the remaining activity at 1000 µM was 102%.
With `N[C@@H](CCCN(CCC(=O)O)C(=O)c1ccccc1)C(=O)O` [Structure d], the remaining activity at 1000 µM came out at 36%.
Turning to `CCCC(=O)N(CCCC[C@H](N)C(=O)O)CC(=O)O` [Structure e], the remaining activity at 1000 µM is 102%.
On to `N[C@@H](CCCN(CC(=O)O)C(=O)c1ccccc1)C(=O)O` [Structure f], for which the remaining activity at 1000 µM came out at 37.2%.
In the case of `CCc1ccc(C(=O)N(CCC[C@H](N)C(=O)O)CC(=O)O)cc1` [Structure g], the remaining activity at 1000 µM worked out at 11.2%.
`CCOc1cccc(C(=O)N(CCC[C@H](N)C(=O)O)CC(=O)O)c1` [Structure h]: the remaining activity at 1000 µM was 39.8%.
For the molecule `CCOc1ccc(C(=O)N(CCC[C@H](N)C(=O)O)CC(=O)O)cc1` [Structure i], the remaining activity at 1000 µM was 17.3%.
As for `N[C@@H](CCCN(CC(=O)O)C(=O)Cc1ccccc1)C(=O)O` [Structure j], the remaining activity at 1000 µM was 43.3%.
The same measure for `CCOc1ccc(C(=O)N(CCC[C@H](N)C(=O)O)CCC(=O)O)cc1` [Structure k]: 11.6%.
As for `N[C@@H](CCCN(CCC(=O)O)C(=O)Cc1ccccc1)C(=O)O` [Structure l], the remaining activity at 1000 µM was 54.2%.
Regarding `N[C@@H](CCCN(CC(=O)O)C(=O)CCc1ccccc1)C(=O)O` [Structure n], the remaining activity at 1000 µM is 12.3%.
Turning to `N[C@@H](CCCN(CC(=O)O)C(=O)c1cccc2ccccc12)C(=O)O` [Structure p], the remaining activity at 1000 µM was found to be 12.4%.
Regarding `Cc1ccc(S(=O)(=O)N(CCC[C@H](N)C(=O)O)CC(=O)O)cc1` [Structure q], the remaining activity at 1000 µM is 13.4%.
For `N[C@@H](CCCN(CC(=O)O)C(=O)OCc1ccccc1)C(=O)O` [Structure r], the remaining activity at 1000 µM amounted to 16.4%.
`N[C@@H](CCCN(CC(=O)O)C(=O)c1ccc(O)cc1)C(=O)O` [Structure s]: the remaining activity at 1000 µM was found to be 22.4%.
Under `N[C@@H](CCCN(CCC(=O)O)C(=O)c1ccc(O)cc1)C(=O)O` [Structure t] stands 45.4%.
As to `N[C@@H](CCCN(CCC(=O)O)C(=O)c1ccc(OCc2ccccc2)cc1)C(=O)O` [Structure u], the remaining activity at 1000 µM was found to be 12.7%.
With `CCC(C(=O)O)N(CCC[C@H](N)C(=O)O)C(=O)c1ccccc1` (stereo partly shown) [Structure w], the remaining activity at 1000 µM turned out to be 26.1%.
Regarding `N[C@@H](CCCN(CC(=O)O)C(=O)c1ccc(OCCF)cc1)C(=O)O` [Structure x], the remaining activity at 1000 µM stood at 13.3%.
Turning to `N[C@@H](CCCN(CCC(=O)O)C(=O)c1ccc(OCCF)cc1)C(=O)O` [Structure y], the remaining activity at 1000 µM came out at 10.6%.

Values taken from patent publication US9468692B2, “Labeled molecular imaging agents and methods of use” (GENERAL ELECTRIC COMPANY, priority 2014, dated 2016).
